Experimental data from patent publication US11247990B1, “Bicyclic fused pyridine compounds as inhibitors of TAM kinases” (ARRAY BIOPHARMA INC., priority 2017, dated 2022).
Structures can show the parent of a compound that is named as a salt.

Biological target: GST-tagged recombinant human TYRO3 kinase domain (Homo sapiens (Human), UniProt Q06418)
Test: TYRO3 Enzyme Assay (LanthaScreen Eu Kinase Binding, TR-FRET)
Settings: averaged IC50
Procedure: Compounds of Formula I were screened for their ability to inhibit TYRO3 kinase using Invitrogen's LanthaScreen™ Eu Kinase Binding technology. […] After a 60-minute incubation at 22° C., the reaction was measured using a PerkinElmer EnVision multimode plate reader via TR-FRET dual wavelength detection, and the percent of control (POC) calculated using a ratiometric emission factor. […] The POC values were fit to a 4 parameter logistic curve and the IC50 value is point where the curve crosses 50 POC.

Chain of GST-tagged recombinant human TYRO3 kinase domain (Q06418 518-790): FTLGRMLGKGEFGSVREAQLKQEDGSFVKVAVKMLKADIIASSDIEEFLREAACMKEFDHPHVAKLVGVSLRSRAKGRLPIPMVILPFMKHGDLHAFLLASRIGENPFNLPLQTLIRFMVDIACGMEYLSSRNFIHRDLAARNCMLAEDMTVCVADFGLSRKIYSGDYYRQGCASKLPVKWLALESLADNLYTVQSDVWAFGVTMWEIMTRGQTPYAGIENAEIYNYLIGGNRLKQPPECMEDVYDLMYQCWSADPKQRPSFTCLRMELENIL

Row | SMILES | IC50
1 | CNc1cc2c(cn1)c(-c1cnn(C)c1)nn2C1CCC(Oc2cc(N(C)C)cnn2)CC1 (stereo not drawn) [Example 154, 1-((1s,4s)-4-((5-(dimethylamino)pyridazin-3-yl)oxy)cyclohexyl)-N-methyl-3-(1-methyl-1H-pyrazol-4-yl)-1H-pyrazolo[4,3-c]pyridin-6-amine] | 1000 to 10000 nM
2 | Cn1cc(-c2nn([C@H]3CC[C@@H](Oc4cccnc4C(F)(F)F)CC3)c3cc(Nc4ccccc4)ncc23)cn1 [Example 304, 3-(1-methyl-1H-pyrazol-4-yl)-N-phenyl-1-((1s,4s)-4-((2-(trifluoromethyl)pyridin-3-yl)oxy)cyclohexyl)-1H-pyrazolo[4,3-c]pyridin-6-] | < 10 nM
3 | CNc1cc2c(cn1)c(-c1cnn(C)c1)nn2[C@H]1CC[C@@H](Oc2cncnc2)CC1 [Example 141, N-methyl-3-(1-methyl-1H-pyrazol-4-yl)-1-((1s,4s)-4-(pyrimidin-5-yloxy)cyclohexyl)-1H-pyrazolo[4,3-c]pyridin-6-amine] | 1000 to 10000 nM
4 | CCNc1cc2c(cn1)c(-c1cnn(C(C)(C)C#N)c1)nn2[C@H]1CC[C@@H](Oc2ccc(=O)n(CC)n2)CC1 [Example 57, 2-(4-(1-((1s,4s)-4-((1-ethyl-6-oxo-1,6-dihydropyridazin-3-yl)oxy)cyclohexyl)-6-(ethylamino)-1H-pyrazolo[4,3-c]pyridin-3-yl)-1H-pyrazol-1-yl)-2-methylpropanenitrile] | 1000 to 10000 nM
5 | CNc1cc2c(cn1)c(-c1cnc(N3CCOCC3)nc1)nn2[C@H]1CC[C@@H](Oc2ccc(=O)n(C)n2)CC1 [Example 51, 2-methyl-6-(((1s,4s)-4-(6-(methylamino)-3-(2-morpholinopyrimidin-5-yl)-1H-pyrazolo[4,3-c]pyridin-1-yl)cyclohexyl)oxy)pyridazin-3(2H)-one] | 1000 to 10000 nM
6 | CNc1cc2c(cn1)c(-c1cnn(C)c1)nn2[C@H]1CC[C@H](Oc2ccnc(C)c2)CC1 [Example 121, N-methyl-3-(1-methyl-1H-pyrazol-4-yl)-1-((1r,4r)-4-((2-methylpyridin-4-yl)oxy)cyclohexyl)-1H-pyrazolo[4,3-c]pyridin-6-amine] | 1000 to 10000 nM
7 | CNc1cc2c(cn1)c(-c1cnn(C)c1)nn2[C@H]1CC[C@@H](Oc2cccnn2)CC1 [Example 120, N-methyl-3-(1-methyl-1H-pyrazol-4-yl)-1-((1s,4s)-4-(pyridazin-3-yloxy)cyclohexyl)-1H-pyrazolo[4,3-c]pyridin-6-amine] | 1000 to 10000 nM
8 | CNc1cc2c(cn1)c(-c1cnn(C)c1)nn2[C@H]1CC[C@@H](Oc2nc(C)ncc2OC)CC1 [Example 176, 1-((1s,4s)-4-((5-methoxy-2-methylpyrimidin-4-yl)oxy)cyclohexyl)-N-methyl-3-(1-methyl-1H-pyrazol-4-yl)-1H-pyrazolo[4,3-c]pyridin-6-amine] | 1000 to 10000 nM
9 | CNc1cc2c(cn1)c(-c1cnn(C)c1)nn2[C@H]1CC[C@@H](Oc2ccc(=O)n(CCN(C)C)n2)CC1 [Example 18, 2-(2-(dimethylamino)ethyl)-6-(((1s,4s)-4-(3-(1-methyl-1H-pyrazol-4-yl)-6-(methylamino)-1H-pyrazolo[4,3-c]pyridin-1-yl)cyclohexyl)oxy)pyridazin-3(2H)-one] | 1000 to 10000 nM
10 | CNc1cc2c(cn1)c(-c1cnn(C)c1)nn2[C@H]1CC[C@@H](Oc2ccc(=O)n(Cc3ccc(OC)cc3)n2)CC1 [Example 20, 2-(4-methoxybenzyl)-6-(((1s,4s)-4-(3-(1-methyl-1H-pyrazol-4-yl)-6-(methylamino)-1H-pyrazolo[4,3-c]pyridin-1-yl)cyclohexyl)oxy)pyridazin-3(2H)-one] | 1000 to 10000 nM
11 | CNc1cc2c(cn1)c(-c1cncc(C(F)(F)F)c1)nn2[C@H]1CC[C@@H](Oc2ccc(=O)n(C)n2)CC1 [Example 52, 2-methyl-6-(((1s,4s)-4-(6-(methylamino)-3-(5-(trifluoromethyl)pyridin-3-yl)-1H-pyrazolo[4,3-c]pyridin-1-yl)cyclohexyl)oxy)pyridazin-3(2H)-one] | 1000 to 10000 nM
12 | CNc1cc2c(cn1)c(-c1cnn(C)c1)nn2[C@H]1CC[C@@H](Oc2cccc(C(=O)NC(C)C)c2)CC1 [Example 455, N-isopropyl-3-(((1s,4s)-4-(3-(1-methyl-1H-pyrazol-4-yl)-6-(methylamino)-1H-pyrazolo[4,3-c]pyridin-1-yl)cyclohexyl)oxy)benzamide] | 1000 to 10000 nM
13 | CCNc1cc2c(cn1)c(C1CCCCC1)nn2[C@H]1CC[C@@H](Oc2nccc(C(F)(F)F)c2F)CC1 [Example 322, 3-cyclohexyl-N-ethyl-1-((1s,4s)-4-((3-fluoro-4-(trifluoromethyl)pyridin-2-yl)oxy)cyclohexyl)-1H-pyrazolo[4,3-c]pyridin-6-amine] | 1000 to 10000 nM
14 | CNc1cc2c(cn1)c(-c1cnn(C)c1)nn2[C@H]1CC[C@@H](Oc2nn(C)c(=O)c(C)c2C)CC1 [Example 8, 2,4,5-trimethyl-6-(((1s,4s)-4-(3-(1-methyl-1H-pyrazol-4-yl)-6-(methylamino)-1H-pyrazolo[4,3-c]pyridin-1-yl)cyclohexyl)oxy)pyridazin-3(2H)-one hydrochloride] | 1000 to 10000 nM
15 | CNc1cc2c(cn1)c(-c1cnn(C)c1)nn2[C@H]1CC[C@@H](Oc2ccc(OC)nc2)CC1 [Example 130, 1-((1s,4s)-4-((6-methoxypyridin-3-yl)oxy)cyclohexyl)-N-methyl-3-(1-methyl-1H-pyrazol-4-yl)-1H-pyrazolo[4,3-c]pyridin-6-amine] | 1000 to 10000 nM
16 | CNc1cc2c(cn1)c(-c1ccc(F)cc1)nn2[C@H]1CC[C@@H](Oc2ccccn2)CC1 [Example 118, 3-(4-fluorophenyl)-N-methyl-1-((1s,4s)-4-(pyridin-2-yloxy)cyclohexyl)-1H-pyrazolo[4,3-c]pyridin-6-amine] | 1000 to 10000 nM
17 | CNc1cc2c(cn1)c(-c1cnn(C)c1)nn2[C@H]1CC[C@@H](Oc2cccc(C(F)(F)F)n2)CC1 [Example 174, N-methyl-3-(1-methyl-1H-pyrazol-4-yl)-1-((1s,4s)-4-((6-(trifluoromethyl)pyridin-2-yl)oxy)cyclohexyl)-1H-pyrazolo[4,3-c]pyridin-6-amine] | 1000 to 10000 nM
18 | CNc1cc2c(cn1)c(-c1cnn(C)c1)nn2[C@H]1CC[C@@H](Oc2cccc(C(=O)N(C)C)c2)CC1 [Example 454] | 1000 to 10000 nM
19 | CNc1cc2c(cn1)c(-c1cnn(C)c1)nn2[C@H]1CC[C@@H](Oc2cccc(C(=O)NC(C)C)c2F)CC1 [Example 466, 2-fluoro-N-isopropyl-3-(((1s,4s)-4-(3-(1-methyl-1H-pyrazol-4-yl)-6-(methylamino)-1H-pyrazolo[4,3-c]pyridin-1-yl)cyclohexyl)oxy)benzamide] | 1000 to 10000 nM
20 | CNc1cc2c(cn1)c(-c1cnn(C)c1)nn2[C@H]1CC[C@H](Oc2cccnn2)CC1 [Example 119, N-methyl-3-(1-methyl-1H-pyrazol-4-yl)-1-((1r,4r)-4-(pyridazin-3-yloxy)cyclohexyl)-1H-pyrazolo[4,3-c]pyridin-6-amine] | 1000 to 10000 nM
21 | CCNc1cc2c(cn1)c(-c1cnn(C)c1)nn2[C@H]1CC[C@@H](Oc2cnn(C)c2C)CC1 [Example 226, 1-((1s,4s)-4-((1,5-dimethyl-1H-pyrazol-4-yl)oxy)cyclohexyl)-N-ethyl-3-(1-methyl-1H-pyrazol-4-yl)-1H-pyrazolo[4,3-c]pyridin-6-amine] | 1000 to 10000 nM
22 | Cn1cc(-c2nn([C@H]3CC[C@@H](Oc4ccc(=O)n(C)n4)CC3)c3cc(Nc4cccc(F)c4)ncc23)cn1 [Example 66] | < 10 nM
23 | CNc1cc2c(cn1)c(-c1cnn(C)c1)nn2[C@H]1CC[C@@H](Oc2ccc(=O)[nH]n2)CC1 [Example 21, 6-(((1s,4s)-4-(3-(1-methyl-1H-pyrazol-4-yl)-6-(methylamino)-1H-pyrazolo[4,3-c]pyridin-1-yl)cyclohexyl)oxy)pyridazin-3(2H)-one] | 1000 to 10000 nM
24 | CNc1cc2c(cn1)c(-c1cnn(C)c1)nn2[C@H]1CC[C@@H](Oc2ccc(C#N)cn2)CC1 [Example 127, 6-(((1s,4s)-4-(3-(1-methyl-1H-pyrazol-4-yl)-6-(methylamino)-1H-pyrazolo[4,3-c]pyridin-1-yl)cyclohexyl)oxy)nicotinonitrile] | 1000 to 10000 nM
25 | CNc1cc2c(cn1)c(-c1cnn(C)c1)nn2[C@H]1CC[C@@H](Oc2cccnc2C(=O)N(C)C)CC1 [Example 277, N,N-dimethyl-3-(((1s,4s)-4-(3-(1-methyl-1H-pyrazol-4-yl)-6-(methylamino)-1H-pyrazolo[4,3-c]pyridin-1-yl)cyclohexyl)oxy)picolinamide] | 1000 to 10000 nM
26 | CCNc1cc2c(cn1)c(-c1cnn(C)c1)nn2[C@H]1CC[C@@H](Oc2ccc(=O)n(CCOC)n2)CC1 [Example 13, 6-(((1s,4s)-4-(6-(ethylamino)-3-(1-methyl-1H-pyrazol-4-yl)-1H-pyrazolo[4,3-c]pyridin-1-yl)cyclohexyl)oxy)-2-(2-methoxyethyl)pyridazin-3(2H)-one] | 1000 to 10000 nM
27 | CNC(=O)c1ncccc1O[C@H]1CC[C@@H](n2nc(-c3cnn(C)c3)c3cnc(NC)cc32)CC1 [Example 276, N-methyl-3-(((1s,4s)-4-(3-(1-methyl-1H-pyrazol-4-yl)-6-(methylamino)-1H-pyrazolo[4,3-c]pyridin-1-yl)cyclohexyl)oxy)picolinamide] | 1000 to 10000 nM
28 | CNc1cc2c(cn1)c(-c1cnn(C)c1)nn2[C@H]1CC[C@@H](Oc2ccc(OCc3ccccc3)nc2)CC1 [Example 131, 1-((1s,4s)-4-((6-(benzyloxy)pyridin-3-yl)oxy)cyclohexyl)-N-methyl-3-(1-methyl-1H-pyrazol-4-yl)-1H-pyrazolo[4,3-c]pyrdin-6-amine] | 1000 to 10000 nM
29 | CNc1cc2c(cn1)c(-c1cnn(C)c1)nn2[C@H]1CC[C@@H](Oc2cc(=O)cnn2C)CC1 [Example 114, 1-methyl-6-(((1s,4s)-4-(3-(1-methyl-1H-pyrazol-4-yl)-6-(methylamino)-1H-pyrazolo[4,3-c]pyridin-1-yl)cyclohexyl)oxy)pyridazin-4(1H)-one] | 1000 to 10000 nM
30 | CNc1cc2c(cn1)c(-c1cnn(C)c1)nn2[C@H]1CC[C@@H](Oc2ccc(OC)nn2)CC1 [Example 123, 1-((1s,4s)-4-((6-methoxypyridazin-3-yl)oxy)cyclohexyl)-N-methyl-3-(1-methyl-1H-pyrazol-4-yl)-1H-pyrazolo[4,3-c]pyridin-6-amine] | 1000 to 10000 nM
